Data taken from patent US11891403B2, “Tetrazole derivatives as TRPA1 inhibitors” (Boehringer Ingelheim International GmbH, priority 2020, dated 2024).

Columns and labels:
[1] = Assay C: Hepatocyte clearance; type: in vitro ADME, human; conditions: cryopreserved hepatocyte suspension, test compound 1 μM, up to 6 h; predicted clearance as % of hepatic blood flow
Protocol: Assay C: Hepatocyte Clearance
The metabolic degradation of the test compound is assayed in a hepatocyte suspension. Hepatocytes (cryopreserved) are incubated in Dulbecco's modified eagle medium (supplemented with 3.5 μg glucagon/500 mL, 2.5 mg insulin/500 mL and 3.75 mg/500 mL hydrocortison) containing 5% or 50% species serum.
The cells are incubated for six hours (incubator, orbital shaker) and samples (25 μl) are taken at 0, 0.5, 1, 2, 4 and 6 hours. Samples are transferred into acetonitrile and pelleted by centrifugation (5 min). The supernatant is transferred to a new 96-deepwell plate, evaporated under nitrogen and resuspended.
Decline of parent compound is analyzed by HPLC-MS/MS
CLint is calculated as follows CL_[…]=Dose/AUC=(CO/CD)/(AUD+clast/k)×1000/60. CO: initial concentration in the incubation [P M], CD: cell density of vital cells [10e6 cells/mL], AUD: area under the data [μM×h], clast: concentration of last data point [μM], k: slope of the regression line for parent decline [h−1].
The calculated in vitro hepatic intrinsic clearance can be scaled up to the intrinsic in vivo hepatic Clearance and used to predict hepatic in vivo blood clearance (CL) by the use of a liver model (well stirred model). CL_[…]_INVIVO [ml/min/kg]=(CL_[…] [μL/min/10e6 cells]×hepatocellularity [10e6 cells/g liver]×liver factor [g/kg bodyweight])/1000 CL [ml/min/kg]=CL_[…]_INVIVO [ml/min/kg]×hepatic blood flow [ml/min/kg]/(CL_[…]_INVIVO [ml/min/kg]+hepatic blood flow [ml/min/kg]) Qh [%]=CL [ml/min/kg]/hepatic blood flow [ml/min/kg])
(§1) Hepatocellularity, human: 120×10e6 cells/g liver
(§2) Liver factor, human: 25.7 g/kg bodyweight
(§3) Blood flow, human: 21 ml/(min×kg)

[2] = biological target: T1, human TRPA1 ion channel (Homo sapiens, UniProt O75762); assay: Assay A: TRPA1 assay (FLIPRtetra, AITC-induced intracellular calcium); type: cell-based; conditions: HEK293 cell line over-expressing human TRPA1, AITC agonism (final 10 μM), AUC of calcium signal, read-out: hTRPA1 IC50
T1 construct: host or cells: HEK293
Protocol: A human HEK293 cell line over-expressing the human TRPA1 ion channel (Perkin Elmer, Product No. AX-004-PCL) is used as a test system for compound efficacy and potency. Compound activity is determined by measuring the effect of compounds on intracellular calcium concentration induced by AITC (Allylisothiocyanat) agonism in a FLIPRtetra system (Molecular Devices).
The cells are obtained as frozen cells in cryo-vials and stored until use at −150° C.
Cells are grown in culture medium (MEM/EBSS medium with 10% FCS and 0.4 mg/ML Geneticin). […] For sub-culturing cells are detached from flasks by Versene. At the day before the assay, cells are detached, washed twice with medium (MEM/EBSS medium with 10% FCS) and 20000 cells in 20 μl/well are seeded to Poly D-Lysin biocoated 384-well plates (black, clear bottom, Cat. 356697) from Corning. Plates are incubated for 24 hours at 37° C./5% C02 before use in the assay.
The test compounds are dissolved in 100% DMSO at a concentration of 10 mM and in a first step diluted in DMSO to a concentration of 5 mM, followed by serial dilution steps in 100% DMSO. Dilution factor and number of dilution steps may vary according to needs. Typically 8 different concentrations by 1:5 dilutions are prepared, further intermediate dilutions (1:20) of the substances are carried out with HBSS/HEPES buffer (1×HEPES, Cat. 14065 from Gibco, 20 mM HEPES, Cat. 83264 from SIGMA, 0.1% BSA Cat. 11926 from Invitrogen, pH 7.4
At the assay day cells are washed 3× with assay puffer, 20 μL buffer remaining in the wells after washing. 10 μL Ca6 kit (Cat. R8191 Molecular Devices) loading buffer in HBSS/HEPES is added to the cells and the plates are incubated with lid for 120 minutes at 37°/5% CO2. 10 μL of compound or controls in HBSS/HEPES buffer/5% DMSO from the intermediate dilution plate are carefully added to the wells. […] Finally 10 μL of the agonist AITC 50 μM dissolved in HBSS/HEPES buffer/0.05% DMSO (final concentration 10 μM) is added to the wells followed by an additional read on the FLIPRtetra device for 10 minutes. The area under the signal curve (AUC) after AITC addition is used for IC50/% inhibition calculations
Data Evaluation and Calculation:
Each assay microtiter plate contains wells with vehicle (1% DMSO) controls instead of compound as controls for AITC induced luminescence (100% CTL; high controls) and is wells with vehicle controls without AITC as controls for non-specific changes in luminescence (0% CTL; low controls).
The analysis of the data is performed by the calculation of the area under signal curve of the individual wells. Based on this values the % value for the measurement of each substance concentration is calculated (AUC(sample)−AUC(low))*100/(AUC(high)−AUC(low)) using MegaLab software (in house development). The IC50 values are calculated from the % control values using MegaLab software. Calculation: [y=(ad)/(1+(x/c)^b)+d], a=low value, d=high value; x=conc M; c=IC50 M; b=hill; y=% ctrl

[3] = Assay B: Microsomal clearance; type: in vitro ADME, human; conditions: pooled liver microsomes 1 mg/ml, test compound 1 μM, 37° C., NADPH; clearance as % of hepatic blood flow
Protocol: Assay B: Microsomal Clearance:
The metabolic degradation of the test compound is assayed at 37° C. with pooled liver microsomes. The final incubation volume of 100 μl per time point contains TRIS buffer pH 7.6 at RT (0.1 M), magnesium chloride (5 mM), microsomal protein (1 mg/ml) and the test compound at a final concentration of 1 μM.
Following a short preincubation period at 37° C., the reactions are initiated by addition of beta-nicotinamide adenine dinucleotide phosphate, reduced form (NADPH, 1 mM) and terminated by transferring an aliquot into solvent after different time points (0, 5, 15, 30, 60 min). Additionally, the NADPH-independent degradation is monitored in incubations without NADPH, terminated at the last time point. The [%] remaining test compound after NADPH independent incubation is reflected by the parameter c (control) (metabolic stability). The quenched incubations are pelleted by centrifugation (10000 g, 5 min).
An aliquot of the supernatant is assayed by LC-MS/MS for the amount of parent compound. The half-life (t½ INVITRO) is determined by the slope of the semilogarithmic plot of the concentration-time profile.
The intrinsic clearance (CL_[…]) is calculated by considering the amount of protein in the incubation: CL_[…] [μl/min/mg protein]=(Ln 2/(half-life [min]*protein content [mg/ml]))*1000 CL_[…]_INVIVO [ml/min/kg]=(CL_[…] [μL/min/mg protein]×MPPGL [mg protein/g liver]×liver factor [g/kg bodyweight])/1000 Qh [%]=CL [ml/min/kg]/hepatic blood flow [ml/min/kg])
as §1, §2, §3

T1 sequence (O75762 whole entry): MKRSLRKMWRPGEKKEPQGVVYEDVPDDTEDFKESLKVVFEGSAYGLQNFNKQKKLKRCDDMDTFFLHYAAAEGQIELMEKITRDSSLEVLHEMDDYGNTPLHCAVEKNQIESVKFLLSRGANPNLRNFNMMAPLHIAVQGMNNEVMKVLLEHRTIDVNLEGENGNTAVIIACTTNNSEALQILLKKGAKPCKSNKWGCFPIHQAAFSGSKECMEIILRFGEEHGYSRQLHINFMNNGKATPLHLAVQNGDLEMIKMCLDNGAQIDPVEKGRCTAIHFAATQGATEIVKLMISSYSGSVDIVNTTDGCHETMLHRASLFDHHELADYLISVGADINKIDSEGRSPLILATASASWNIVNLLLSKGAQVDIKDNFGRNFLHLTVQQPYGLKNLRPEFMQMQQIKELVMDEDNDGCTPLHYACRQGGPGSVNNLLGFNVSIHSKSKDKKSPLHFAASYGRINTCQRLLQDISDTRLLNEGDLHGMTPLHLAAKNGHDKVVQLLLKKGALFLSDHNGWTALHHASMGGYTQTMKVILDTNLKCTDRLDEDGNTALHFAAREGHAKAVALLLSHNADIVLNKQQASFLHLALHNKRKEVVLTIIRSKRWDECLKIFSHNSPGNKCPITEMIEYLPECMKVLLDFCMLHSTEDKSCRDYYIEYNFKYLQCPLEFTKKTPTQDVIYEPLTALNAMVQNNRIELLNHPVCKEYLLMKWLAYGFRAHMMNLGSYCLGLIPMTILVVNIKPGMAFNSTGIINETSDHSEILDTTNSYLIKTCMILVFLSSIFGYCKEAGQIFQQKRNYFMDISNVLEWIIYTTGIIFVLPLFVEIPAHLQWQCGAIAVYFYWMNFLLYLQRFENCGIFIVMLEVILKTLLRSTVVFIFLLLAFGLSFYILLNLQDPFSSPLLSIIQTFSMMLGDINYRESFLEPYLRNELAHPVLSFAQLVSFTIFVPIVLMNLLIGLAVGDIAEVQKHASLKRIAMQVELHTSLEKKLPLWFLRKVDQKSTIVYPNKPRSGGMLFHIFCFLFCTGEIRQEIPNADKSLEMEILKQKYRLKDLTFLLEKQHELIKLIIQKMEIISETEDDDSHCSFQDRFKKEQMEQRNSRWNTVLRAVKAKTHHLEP

SMILES | human Hepatocytes [% Qh] [1] | IC50 [2] | human LM [% Qh] [3]
CN1C(=O)C(F)(F)Oc2ncn(Cc3nnn(C[C@H](O)c4ccc(Cl)cc4)n3)c(=O)c21 [Example 22] | 12 % Qh | 74 nM | 35 % Qh
C[C@H]1Oc2ncn(Cc3nnn(C[C@H](O)c4ccc(Cl)cc4)n3)c(=O)c2N(C)C1=O [Example 23] | 36 % Qh | 52 nM | 25 % Qh
C[C@@H]1Oc2ncn(Cc3nnn(C[C@H](O)c4ccc(Cl)cc4)n3)c(=O)c2N(C)C1=O [Example 24] | 16 % Qh | 100 nM | <23 % Qh
